Test results: PubChem BioAssay (NCI)
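Cells were grown in 96-well plates and exposed to each compound for 48 hours at five concentrations; endpoints were interpolated linearly between bracketing concentrations, or set to the highest concentration if not reached. GI50: concentration for 50% inhibition of growth. TGI is the concentration that stops growth completely.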

Tests used:
Assay in all cases: inhibition of tumour cell growth, NCI panel, 48 h
HT29 colon = tested on: HT29 colon
KM12 colon = tested on: KM12 colon
LOX IMVI melanoma = tested on: LOX IMVI melanoma
OVCAR-3 ovarian = tested on: OVCAR-3 ovarian
SK-OV-3 ovarian = tested on: SK-OV-3 ovarian
SNB-19 CNS = tested on: SNB-19 CNS
UACC-257 melanoma = tested on: UACC-257 melanoma
UACC-62 melanoma = tested on: UACC-62 melanoma
MDA-MB-231 breast = tested on: MDA-MB-231 breast
PC-3 prostate = tested on: PC-3 prostate

Row | Compound | GI50 (HT29 colon) [µM] | TGI (HT29 colon) [µM] | GI50 (KM12 colon) [µM] | TGI (KM12 colon) [µM] | GI50 (LOX IMVI melanoma) [µM] | TGI (LOX IMVI melanoma) [µM] | GI50 (OVCAR-3 ovarian) [µM] | TGI (OVCAR-3 ovarian) [µM] | GI50 (SK-OV-3 ovarian) [µM] | TGI (SK-OV-3 ovarian) [µM] | GI50 (SNB-19 CNS) [µM] | TGI (SNB-19 CNS) [µM] | GI50 (UACC-257 melanoma) [µM] | TGI (UACC-257 melanoma) [µM] | GI50 (UACC-62 melanoma) [µM] | TGI (UACC-62 melanoma) [µM] | GI50 (MDA-MB-231 breast) [µM] | TGI (MDA-MB-231 breast) [µM] | GI50 (PC-3 prostate) [µM] | TGI (PC-3 prostate) [µM]
1 | CC(C)c1cc(C(=O)[O-])c(O)c(C(C)C)c1.CC(C)c1cc(C(=O)[O-])c(O)c(C(C)C)c1.CC(C)c1cc(C(=O)[O-])c(O)c(C(C)C)c1.CC(C)c1cc(C(=O)[O-])c(O)c(C(C)C)c1.CC(C)c1cc(C(=O)[O-])c(O)c(C(C)C)c1.CC(C)c1cc(C(=O)[O-])c(O)c(C(C)C)c1.[Cu+2].[Mn+2].[Mn+2] | 15.6 | 31.4 | 18.2 | 43.4 | 17 | 36.3 | 2.87 | 10.4 | 2.61 | 16.1 | 20.8 | 47.8 | 29.6 | 67.1 | 15.3 | 34.4 |  |  |  | 
2 | COc1c(N2CCN(CN3C(=O)C(=O)c4ccccc43)C(C)C2)c(F)cc2c(=O)c(C(=O)O)cn(C3CC3)c12 (configuration not stated) | 47.3 | > 100 | 76.2 | > 100 | 71.2 | > 100 | 98.7 | > 100 |  |  | > 100 | > 100 | > 100 | > 100 | 47.5 | > 100 | 53.5 | > 100 | > 100 | > 100
3 | COc1cc2ccc3c4cc(OC)c(OC(C)C)cc4c[n+](C)c3c2cc1OC |  | > 100 |  | > 100 |  | > 100 |  | > 100 |  | > 100 |  | > 100 |  | > 100 |  | > 100 |  |  |  | 
4 | O=C(CC1SC(=Nc2ccccc2Cl)NC1=O)Nc1ccc(Cl)cc1 (configuration not stated) |  | > 100 |  | > 100 |  | > 100 |  |  |  | > 100 |  | > 100 |  | > 100 |  | > 100 |  |  |  | 
5 | CCOC(=O)c1csc(-c2nc(CCNC(=O)c3ccccc3)sc2Cl)n1 |  | > 100 |  | > 100 |  |  |  | > 100 |  | > 100 |  | > 100 |  | > 100 |  | > 100 |  |  |  | > 100
6 | CC(C)C1NC(=O)[C@H](C)OC(=O)[C@@H](C(C)C)NC(=O)[C@@H](C)OC(=O)C(C(C)C)NC(=O)[C@H](C)OC1=O (some centres not stated) |  | > 100 |  | > 100 |  | > 79 |  | > 100 |  | > 100 |  | > 100 |  | > 100 |  | > 100 |  |  |  | 
7 | CC(=O)OC1(C#N)CC2OC1C1N=NN(C(=O)OC(C)(C)C)C21 (configuration not stated) |  | > 100 |  | > 100 |  | > 31.6 |  | > 80.6 |  | > 100 |  | > 100 |  | > 31.6 |  | 42.2 |  |  |  | 
8 | CC(C)(C)C1CCC(=O)C(C(O)CC2CC(=O)N(c3ccccc3)C(=O)C2)C1 (configuration not stated) |  | > 100 |  | > 100 |  | > 100 |  | > 100 |  | > 100 |  | > 100 |  | > 100 |  | > 100 |  |  |  | 
9 | N.N.NCCCCCN.O=C([O-])CC(=O)[O-].O=C([O-])CC(=O)[O-].[Pt+4].[Pt+4] | > 100 | > 100 | > 100 | > 100 | > 100 | > 100 | > 100 | > 100 | > 100 | > 100 | > 100 | > 100 | > 100 | > 100 | 18.7 | > 100 |  |  |  | 
